The values below come from US12398154B2, “Azaquinazoline pan-KRas inhibitors” (Mirati Therapeutics, Inc., priority 2020, dated 2025).

One assay concerns the target KRas G12R (Homo sapiens, UniProt P01116, G12R). Description: biochemical.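 Note: TR-FRET displacement assay of compound binding to KRas, read after one hour at room temperature, potency from a four-parameter fit of percent-of-control values.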
The next assay has as its target KRas G12D (Homo sapiens, UniProt P01116, G12D). The assay is described as follows: biochemical.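 Note: TR-FRET displacement binding assay on KRas, read after a one-hour incubation at room temperature, IC50 fitted from percent-of-control values.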
The subject of another assay is pERK in H358 cells. The assay is described as follows: Inhibition of KRas phosphorylation of ERK (Cisbio HTRF pERK assay). To be noted: Homo sapiens, NCI-H358, read-out: Inhibition (HTRF IC50) of KRas-mediated Phosphorylation of ERK, H358.
The next assay concerns pERK in HCT116 cells. Described as above. To be noted: Homo sapiens, HCT-116, read-out: Inhibition (HTRF IC50) of KRas-mediated Phosphorylation of ERK, HCT116.
For the next assay, the system named is pERK in A549 cells. The description is as above. To be noted: Homo sapiens, A549, read-out: Inhibition (HTRF IC50) of KRas-mediated Phosphorylation of ERK, A549.
The test system of a further assay is pERK in ASPC1 cells. The description is as above. To be noted: Homo sapiens, ASPC1, read-out: Inhibition (HTRF IC50) of KRas-mediated Phosphorylation of ERK, AsPC-1.
The next assay relates to pERK in PSN1 cells. Described as above. To be noted: Homo sapiens, PSN1, 3 h, read-out: Inhibition (HTRF IC50) of KRas-mediated Phosphorylation of ERK, PSN1.
Another assay concerns pERK in H727 cells. The description is as above. To be noted: Homo sapiens, NCI-H727, read-out: Inhibition (HTRF IC50) of KRas-mediated Phosphorylation of ERK, H727.
The next assay concerns pERK in MKN1 cells. Described as above. To be noted: Homo sapiens, MKN-1, 3 h, read-out: Inhibition (HTRF IC50) of KRas-mediated Phosphorylation of ERK, MKN1.
The subject of the next assay is pERK in H460 cells. The assay is described as above. To be noted: Homo sapiens, NCI-H460, read-out: Inhibition (HTRF IC50) of KRas-mediated Phosphorylation of ERK, H460.
A further assay concerns the target KRas G12V (Homo sapiens, UniProt P01116, G12V). Description: biochemical.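 Note: KRas binding measured by TR-FRET displacement at room temperature, IC50 fitted from percent of control values.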

Sequence of KRas G12R (P01116 1-169 isoform P01116-2 G12R): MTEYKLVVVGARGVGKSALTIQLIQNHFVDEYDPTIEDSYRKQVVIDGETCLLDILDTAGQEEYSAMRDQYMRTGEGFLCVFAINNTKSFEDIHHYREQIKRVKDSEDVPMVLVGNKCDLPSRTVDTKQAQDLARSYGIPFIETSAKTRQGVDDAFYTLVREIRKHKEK
Sequence of KRas G12V (P01116 1-169 isoform P01116-2 G12V): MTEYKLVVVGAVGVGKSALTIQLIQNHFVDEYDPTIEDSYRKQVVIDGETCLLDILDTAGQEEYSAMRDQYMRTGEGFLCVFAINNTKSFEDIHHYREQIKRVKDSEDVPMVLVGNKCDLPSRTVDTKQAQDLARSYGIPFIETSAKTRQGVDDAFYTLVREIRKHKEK
Sequence of KRas G12D (P01116 1-169 isoform P01116-2 G12D): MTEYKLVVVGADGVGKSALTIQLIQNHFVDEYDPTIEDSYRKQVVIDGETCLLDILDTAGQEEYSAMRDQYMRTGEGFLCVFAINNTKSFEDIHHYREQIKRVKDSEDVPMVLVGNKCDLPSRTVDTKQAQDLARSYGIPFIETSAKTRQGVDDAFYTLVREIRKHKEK

As to `CCc1c(F)ccc2cc(O)cc(-c3ncc4c(N5C[C@@H](CO)C[C@](C)(O)C5)nc(OC[C@@]56CCCN5C[C@H](F)C6)nc4c3F)c12` (mixture of isomers) [Example 327, (3RS,5RS)-1-(7-(8-ethyl-7-fluoro-3-hydroxynaphthalen-1-yl)-8-fluoro-2-(((2R,7aS)-2-fluorotetrahydro-1H-pyrrolizin-7a(5H)-yl)methoxy)pyrido[4,3-d]pyrimidin-4-yl)-5-(hydroxymethyl)-3-methylpiperidin-3-ol], the IC50 is ≤ 2 nM against KRas G12R; ≤ 2 nM against KRas G12D; 10 nM in the assay on pERK in H358 cells; 381 nM in the assay on pERK in HCT116 cells; 238 nM in the assay with pERK in A549 cells; 23 nM with pERK in ASPC1 cells. The IC50 with pERK in PSN1 cells is 6690 nM; in the assay with pERK in H727 cells it was 98 nM; with pERK in MKN1 cells, 14 nM; with pERK in H460 cells, 206 nM; against KRas G12V it was ≤ 2 nM.
Consider `CCc1c(F)ccc2cc(O)cc(-c3ncc4c(N5CCCOCC5)nc(OC[C@@]56CCCN5C[C@H](F)C6)nc4c3F)c12` [Example 315, 5-ethyl-6-fluoro-4-(8-fluoro-2-(((2R,7aS)-2-fluorohexahydro-1H-pyrrolizin-7a-yl)methoxy)-4-(1,4-oxazepan-4-yl)pyrido[4,3-d]pyrimidin-7-yl)naphthalen-2-ol], for which the IC50 in the assay on pERK in H358 cells worked out at 5 nM; in the assay on pERK in HCT116 cells it was 24 nM; with pERK in A549 cells, 28 nM; with pERK in ASPC1 cells it was 20 nM; in the assay on pERK in PSN1 cells, 1960 nM; in the assay with pERK in H727 cells, 20 nM. Moreover, the IC50 in the assay on pERK in MKN1 cells was determined as 5 nM; with pERK in H460 cells it was 34 nM.
In the case of `CCc1c(F)ccc2cc(O)cc(-c3ncc4c(N5CCC[C@@](C)(O)C5)nc(OCC5(CN(C)C)CC5)nc4c3F)c12` [Example 316, (R)-1-(2-((1-((dimethylamino)methyl)cyclopropyl)methoxy)-7-(8-ethyl-7-fluoro-3-hydroxynaphthalen-1-yl)-8-fluoropyrido[4,3-d]pyrimidin-4-yl)-3-methylpiperidin-3-ol], the IC50 in the assay with pERK in H358 cells was found to be 9 nM; in the assay on pERK in HCT116 cells it was 30 nM; with pERK in A549 cells, 51 nM; in the assay on pERK in ASPC1 cells it was 8 nM; in the assay on pERK in PSN1 cells, 2040 nM; with pERK in H727 cells, 32 nM. The IC50 in the assay on pERK in MKN1 cells was determined as 1 nM; in the assay on pERK in H460 cells it was 69 nM.
`CCc1c(F)ccc2cc(O)cc(-c3ncc4c(N5CCC[C@@](C)(O)C5)nc(OCC5(CN6CCOCC6)CC5)nc4c3F)c12` [Example 332, (R)-1-(7-(8-ethyl-7-fluoro-3-hydroxynaphthalen-1-yl)-8-fluoro-2-((1-(morpholinomethyl)cyclopropyl)methoxy)pyrido[4,3-d]pyrimidin-4-yl)-3-methylpiperidin-3-ol]: the IC50 on KRas G12R was 3 nM; at KRas G12D it was ≤ 2 nM; in the assay on pERK in H358 cells, 3 nM; in the assay with pERK in HCT116 cells, 48 nM; in the assay with pERK in A549 cells it was 13 nM; in the assay with pERK in ASPC1 cells, 6 nM. The IC50 with pERK in PSN1 cells was 710 nM; in the assay on pERK in H727 cells, 31 nM; in the assay with pERK in MKN1 cells, 2 nM; in the assay on pERK in H460 cells, 22 nM; against KRas G12V it was ≤ 2 nM.
With `CCc1c(F)ccc2cc(O)cc(-c3ncc4c(N5CCC[C@@](C)(O)C5)nc(OCC5(CN6CCN(C)CC6)CC5)nc4c3F)c12` [Example 336, (R)-1-(7-(8-ethyl-7-fluoro-3-hydroxynaphthalen-1-yl)-8-fluoro-2-((1-((4-methylpiperazin-1-yl)methyl)cyclopropyl)methoxy)pyrido[4,3-d]pyrimidin-4-yl)-3-methylpiperidin-3-ol], the IC50 was ≤ 2 nM against KRas G12R; ≤ 2 nM at KRas G12D; 59 nM with pERK in H358 cells; 208 nM with pERK in HCT116 cells; 75 nM with pERK in A549 cells; 32 nM with pERK in ASPC1 cells. Besides, the IC50 in the assay with pERK in PSN1 cells was 4120 nM; in the assay on pERK in H727 cells it was 129 nM; in the assay with pERK in MKN1 cells, 4 nM; in the assay with pERK in H460 cells it was 162 nM; on KRas G12V, ≤ 2 nM.
On to `CCc1c(F)ccc2cc(O)cc(-c3ncc4c(N5CCCn6nc(C(=O)NC)cc6C5)nc(OC[C@@]56CCCN5C[C@H](F)C6)nc4c3F)c12` [Example 339, 5-(7-(8-ethyl-7-fluoro-3-hydroxynaphthalen-1-yl)-8-fluoro-2-(((2R,7aS)-2-fluorotetrahydro-1H-pyrrolizin-7a(5H)-yl)methoxy)pyrido[4,3-d]pyrimidin-4-yl)-N-methyl-5,6,7,8-tetrahydro-4H-pyrazolo[1,5-a][1,4]diazepine-2-carboxamide], for which the IC50 was ≤ 2 nM on KRas G12R; ≤ 2 nM at KRas G12D; 95 nM with pERK in H358 cells; 826 nM with pERK in HCT116 cells; 557 nM in the assay with pERK in A549 cells; 48 nM in the assay with pERK in ASPC1 cells. Also, the IC50 was ≥ 10000 nM in the assay with pERK in PSN1 cells; 72 nM in the assay with pERK in H727 cells; 12 nM in the assay with pERK in MKN1 cells; 991 nM in the assay on pERK in H460 cells; ≤ 2 nM on KRas G12V.
As for `CCc1c(F)ccc2cc(O)cc(-c3ncc4c(N5CCCn6nc(NC)cc6C5)nc(OC[C@@]56CCCN5C[C@H](F)C6)nc4c3F)c12` [Example 340, 5-ethyl-6-fluoro-4-(8-fluoro-2-(((2R,7aS)-2-fluorohexahydro-1H-pyrrolizin-7a-yl)methoxy)-4-(2-(methylamino)-7,8-dihydro-4II-pyrazolo[1,5-a][1,4]diazepin-5(6H)-yl)pyrido[4,3-d]pyrimidin-7-yl)naphthalen-2-ol], the IC50 against KRas G12R was ≤ 2 nM; on KRas G12D, ≤ 2 nM; in the assay on pERK in H358 cells it was 55 nM; in the assay on pERK in HCT116 cells, 999 nM; in the assay with pERK in A549 cells, 353 nM; in the assay with pERK in ASPC1 cells it was 39 nM. The IC50 is ≥ 10000 nM in the assay with pERK in PSN1 cells; 149 nM in the assay with pERK in H727 cells; 26 nM in the assay on pERK in MKN1 cells; 373 nM with pERK in H460 cells; ≤ 2 nM against KRas G12V.
Regarding `CCc1c(F)ccc2cc(O)cc(-c3ncc4c(N5CCCSCC5)nc(OC[C@@]56CCCN5C[C@H](F)C6)nc4c3F)c12` [Example 342, 5-ethyl-6-fluoro-4-(8-fluoro-2-(((2R,7aS)-2-fluorohexahydro-1H-pyrrolizin-7a-yl)methoxy)-4-(1,4-thiazepan-4-yl)pyrido[4,3-d]pyrimidin-7-yl)naphthalen-2-ol], the IC50 was ≤ 2 nM against KRas G12R; 3 nM at KRas G12D; 62 nM in the assay with pERK in H358 cells; 470 nM in the assay on pERK in HCT116 cells; 167 nM in the assay on pERK in A549 cells; 23 nM in the assay with pERK in ASPC1 cells. In addition, the IC50 was 2240 nM in the assay with pERK in PSN1 cells; 46 nM with pERK in H727 cells; 4 nM in the assay on pERK in MKN1 cells; 203 nM in the assay with pERK in H460 cells; ≤ 2 nM at KRas G12V.
For the molecule `CCc1c(F)ccc2cc(O)cc(-c3ncc4c(N5CCCOC(CO)C5)nc(OC[C@@]56CCCN5C[C@H](F)C6)nc4c3F)c12` (stereo partly drawn) [Example 343, 5-ethyl-6-fluoro-4-(8-fluoro-2-(((2R,7aS)-2-fluorotetrahydro-1H-pyrrolizin-7a(5H)-yl)methoxy)-4-(2-(hydroxymethyl)-1,4-oxazepan-4-yl)pyrido[4,3-d]pyrimidin-7-yl)naphthalen-2-ol], the IC50 is ≤ 2 nM on KRas G12R; ≤ 2 nM against KRas G12D; 7 nM with pERK in H358 cells; 128 nM with pERK in HCT116 cells; 91 nM with pERK in A549 cells; 60 nM in the assay with pERK in ASPC1 cells. The IC50 in the assay on pERK in PSN1 cells was 5930 nM; in the assay on pERK in H727 cells, 24 nM; with pERK in MKN1 cells, 4 nM; in the assay on pERK in H460 cells it was 128 nM; at KRas G12V, ≤ 2 nM.
Take `C[C@@]1(O)CCCN(c2nc(OC[C@@]34CCCN3C[C@H](F)C4)nc3c(F)c(-c4cc(O)cc5ccc(F)c(F)c45)ncc23)C1` [Example 514, (R)-1-(7-(7,8-difluoro-3-hydroxynaphthalen-1-yl)-8-fluoro-2-(((2R,7aS)-2-fluorohexahydro-1H-pyrrolizin-7a-yl)methoxy)pyrido[4,3-d]pyrimidin-4-yl)-3-methylpiperidin-3-ol]: the IC50 in the assay on pERK in H358 cells stood at 11 nM; with pERK in HCT116 cells, 30 nM; in the assay on pERK in A549 cells, 20 nM; in the assay with pERK in ASPC1 cells, 15 nM; with pERK in PSN1 cells, 859 nM; in the assay on pERK in H727 cells, 19 nM. Besides, the IC50 in the assay on pERK in MKN1 cells amounted to 5 nM; in the assay with pERK in H460 cells, 60 nM.
